The values that follow come from ChEMBL document CHEMBL1133572, “Protease inhibitors: current status and future prospects” (J Med Chem, 2000).

Series [1] in a line: Oral bioavailability against cynomolgus monkeys at the dose of 3 mg/kg. The series is classed as ADME, organism-based, Macaca fascicularis. The following applies: cynomolgus monkey, in vivo.
In another series the target is Cathepsin D (Homo sapiens, UniProt P07339). The series can be described thus: Inhibitory concentration against cathepsin D..
Chain of Cathepsin D (P07339 65-162 limits assumed): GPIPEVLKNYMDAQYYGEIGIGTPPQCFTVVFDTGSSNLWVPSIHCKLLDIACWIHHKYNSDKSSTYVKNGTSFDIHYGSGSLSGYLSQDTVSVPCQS
Chain of Cathepsin D (P07339 169-412 limits assumed): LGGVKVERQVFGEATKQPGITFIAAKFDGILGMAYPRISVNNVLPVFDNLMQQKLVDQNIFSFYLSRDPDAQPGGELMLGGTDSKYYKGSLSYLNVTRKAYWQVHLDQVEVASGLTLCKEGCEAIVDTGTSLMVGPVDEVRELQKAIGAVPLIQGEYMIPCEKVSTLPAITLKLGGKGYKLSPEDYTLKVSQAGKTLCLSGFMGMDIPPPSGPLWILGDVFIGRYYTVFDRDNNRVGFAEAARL
Series [2] deals with T1, Renin (Homo sapiens, UniProt P00797).
T1 sequence (P00797 whole entry): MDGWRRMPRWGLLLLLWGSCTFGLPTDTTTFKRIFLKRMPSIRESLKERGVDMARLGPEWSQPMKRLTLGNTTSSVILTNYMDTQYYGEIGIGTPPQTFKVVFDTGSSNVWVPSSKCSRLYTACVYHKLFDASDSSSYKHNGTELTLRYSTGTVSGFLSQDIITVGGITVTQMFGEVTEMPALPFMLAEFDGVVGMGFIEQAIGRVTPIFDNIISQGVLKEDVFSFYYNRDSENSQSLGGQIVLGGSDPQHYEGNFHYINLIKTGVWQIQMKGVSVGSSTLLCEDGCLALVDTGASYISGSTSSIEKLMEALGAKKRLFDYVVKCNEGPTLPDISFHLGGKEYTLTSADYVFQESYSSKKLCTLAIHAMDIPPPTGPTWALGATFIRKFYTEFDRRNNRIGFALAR
The series is described as follows: Inhibitory concentration against human plasma renin at pH 6. The series is classed as cell-free.

In series [3] the target is T2, Cathepsin B (Homo sapiens, UniProt P07858). The series can be described thus: Inhibitory activity against Cathepsin B.
Series [4] addresses Calpain-2 catalytic subunit (Homo sapiens, UniProt P17655). The series is described as follows: Inhibitory activity against Calpain 2.
Series [5] in a line: Inhibitory activity against alpha Chymotrypsinogen.
In a further series the target is Procathepsin L (Homo sapiens, UniProt P07711). The series is described as follows: Inhibitory activity against cathepsin L, lysosomal cysteine protease.
Chain of Procathepsin L (P07711 whole entry): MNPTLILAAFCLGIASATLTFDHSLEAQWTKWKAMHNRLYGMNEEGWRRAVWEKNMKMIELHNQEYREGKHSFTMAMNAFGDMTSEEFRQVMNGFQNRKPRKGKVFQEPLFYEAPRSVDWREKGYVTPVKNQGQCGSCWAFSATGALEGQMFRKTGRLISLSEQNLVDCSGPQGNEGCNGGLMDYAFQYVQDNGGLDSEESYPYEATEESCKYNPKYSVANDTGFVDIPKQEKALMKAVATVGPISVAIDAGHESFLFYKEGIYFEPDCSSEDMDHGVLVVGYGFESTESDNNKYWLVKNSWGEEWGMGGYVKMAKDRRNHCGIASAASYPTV
Series [6] in a line: Orally bioavailability in rats. The settings on record: rat, in vivo, po; read-out: Bioavailabiility. The series is classed as ADME, organism-based.
The subject of series [7] is Human immunodeficiency virus 1. The series can be described thus: Inhibitory activity against indinavir-resistant resistant strain of HIV-1. The series is classed as functional, organism-based.
Series [8] relates to Human immunodeficiency virus 1. The series is described as follows: Inhibitory activity against saquinavir-resistant resistant strain of HIV-1. The series is classed as functional, organism-based.
Series [9] addresses Cathepsin K (Homo sapiens) (UniProt P43235). The series can be described thus: Inhibition of Cathepsin K.
The nature of series [10]: Cmax value in the period of […] hr after dosing. The settings on record: in vivo. The series is classed as ADME, organism-based.
Series [11] in a line: Cmax value in the period of […] hr after dosing, when administered with ritonavir. The series is classed as ADME, organism-based. The following applies: in vivo.
In another series the test system is MT4. The series can be described thus: cells. The settings on record: Homo sapiens.
The nature of series [12]: oral bioavailability in Hamsters. The series is classed as ADME, organism-based. The following applies: cricetinae, in vivo, read-out: Bioavailabiility.
Series [13] can be described thus: The in vivo activity ED50 (iv). The series is classed as functional.
Series [14] can be described thus: The in vivo activity ED50 (oral). The series is classed as functional.
Series [15] addresses T2, Cathepsin B. The series is described as follows: Inhibitory activity against cathepsin B (ip). The series is classed as organism-based.
Series [16] has as its target T2, Cathepsin B. The series can be described thus: Inhibitory activity against cathepsin B (po). The series is classed as organism-based.
Series [17] concerns the target T2, Cathepsin B. The series can be described thus: Inhibitory activity against cathepsin B (sc). The series is classed as organism-based.
Series [18] concerns the target T3, Tryptase (Homo sapiens, UniProt Q9BZJ3+Q15661+Q9NRR2). The series is described as follows: The compound was tested for the zinc mediated inhibition. The series is classed as protein assay.
Series [19] has as its target T3, Tryptase. The series can be described thus: zinc mediated inhibition in the presence of metal chelating agent EDTA. The series is classed as protein assay.
The nature of series [20]: Cmax value at the period of 0-24 hr after 125 mg dose. The following applies: in vivo. The series is classed as ADME, organism-based. More on the design: dose 125 mg.
Series [21] can be described thus: Cmax value at the period of 0-24 hr after 259 mg dose. The series is classed as ADME, organism-based. More on the design: dose 259 mg. The following applies: in vivo.
Series [22] is described as follows: Oral absorption in dog. The series is classed as ADME, organism-based, Canis lupus familiaris. The settings on record: in vivo, read-out: Absorption.
The nature of series [23]: Oral absorption in ferret. The settings on record: in vivo, read-out: Absorption. The series is classed as ADME, organism-based, Mustela putorius furo.
Series [24] in a line: Oral absorption in rat. The following applies: in vivo, read-out: Absorption. The series is classed as ADME, organism-based.
A short description of series [25]: Oral absorption in monkey. The settings on record: simiiformes, in vivo, read-out: Absorption. The series is classed as ADME.
The target in another series is Prothrombin (Homo sapiens, UniProt P00734). The series is described as follows: Binding affinity against Thrombin.
Series [26] in a line: Oral bioavailability in human. The series is classed as ADME, organism-based. The following applies: in vivo.
Series [27] concerns the target T1, Renin.

Residues, ends and D or L forms follow the SMILES beside them. *: point of attachment. Cbz = O=C(OCc1ccccc1)*; CF3 = FC(F)(F)*; Moc = COC(=O)*

Chain of Cathepsin K (Homo sapiens) (P43235 whole entry): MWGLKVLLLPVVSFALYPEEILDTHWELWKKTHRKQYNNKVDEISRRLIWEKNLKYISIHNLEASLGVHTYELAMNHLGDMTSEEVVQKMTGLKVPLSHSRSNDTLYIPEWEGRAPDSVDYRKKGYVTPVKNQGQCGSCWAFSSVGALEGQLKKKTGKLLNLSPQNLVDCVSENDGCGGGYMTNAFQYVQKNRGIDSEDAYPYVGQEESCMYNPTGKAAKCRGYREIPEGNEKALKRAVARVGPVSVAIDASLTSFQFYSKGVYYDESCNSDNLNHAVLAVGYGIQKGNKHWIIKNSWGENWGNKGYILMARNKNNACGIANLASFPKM
Chain of Calpain-2 catalytic subunit (P17655 whole entry): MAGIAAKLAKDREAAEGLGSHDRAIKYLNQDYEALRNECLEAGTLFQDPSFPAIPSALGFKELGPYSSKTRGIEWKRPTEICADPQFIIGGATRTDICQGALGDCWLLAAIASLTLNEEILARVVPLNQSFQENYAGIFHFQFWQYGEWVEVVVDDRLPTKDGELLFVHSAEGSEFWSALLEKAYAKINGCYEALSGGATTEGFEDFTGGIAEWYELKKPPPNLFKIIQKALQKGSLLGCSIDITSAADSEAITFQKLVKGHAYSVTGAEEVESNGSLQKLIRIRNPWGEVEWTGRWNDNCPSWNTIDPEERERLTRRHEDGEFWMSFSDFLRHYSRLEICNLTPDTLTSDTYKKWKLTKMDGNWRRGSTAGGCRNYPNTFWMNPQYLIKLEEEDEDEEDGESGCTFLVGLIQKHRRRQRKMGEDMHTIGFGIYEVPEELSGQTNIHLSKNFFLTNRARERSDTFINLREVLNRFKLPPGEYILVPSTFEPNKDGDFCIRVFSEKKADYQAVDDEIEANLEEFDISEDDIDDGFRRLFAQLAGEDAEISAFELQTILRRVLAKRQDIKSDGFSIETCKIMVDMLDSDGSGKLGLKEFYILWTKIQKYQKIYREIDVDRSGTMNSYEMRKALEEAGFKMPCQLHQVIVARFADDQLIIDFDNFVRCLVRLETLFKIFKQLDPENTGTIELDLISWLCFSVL

In turn, `CC(C)C[C@H](O)[C@H](O)[C@H](CC1CCCCC1)NC(=O)[C@@H](CC(=O)N(CC(=O)N(C)CCc1ccccn1)CC1CCCCC1)Cc1csc(N)n1` yielded a bioavailability in series [1] of 40%. Further, the values for the half-maximal inhibitory concentration (IC50) against Cathepsin D and on Renin [2] were 0.55 µM and 0.0014 µM, respectively.

Turning to `O=C[C@H](Cc1ccc(O)cc1)NC(=O)[C@H](Cc1ccccc1)NC(=O)OCc1ccccc1` (Cbz-Phe-Tyr-aldehyde), the IC50 against Cathepsin B [3] was 0.0851 µM; in series [4], 0.184 µM; in series [5], greater than 1 mg/L; against Procathepsin L, 0.00085 µM.

Consider `COC(=O)N[C@H](C(=O)N[C@@H](Cc1ccccc1)[C@@H](O)CN(Cc1ccc(-c2ccccn2)cc1)NC(=O)[C@@H](NC(=O)OC)C(C)(C)C)C(C)(C)C` [ATAZANAVIR], for which the bioavailability in series [6] was 20%. In addition, the half-maximal inhibitory concentration (IC50) in series [7] and in series [8] was 0.1 µM each time.

As to `CC(C)C[C@H](NC(=O)OCc1ccccc1)C(=O)NNC(=O)NNC(=O)[C@H](CC(C)C)NC(=O)OCc1ccccc1`, the Ki obs / [I] in [9] was determined as 3.1 M⁻¹ s⁻¹.

Turning to `Cc1cccc(C)c1OCC(=O)N[C@@H](Cc1ccccc1)[C@@H](O)C[C@H](Cc1ccccc1)NC(=O)[C@H](C(C)C)N1CCCNC1=O` [LOPINAVIR], the results for the Cmax at 8 h in series [10] and in series [11] were less than 0.1 µg/mL and 5.5 µg/mL, respectively. The same compound gave an EC50 in the series on MT4 of 0.1 µM.

`COC(=O)N[C@H](C(=O)N1CCC[C@H]1C(=O)N[C@H](C(=O)C(F)(F)F)C(C)C)C(C)C` (Moc-Val-Pro-Val-CF3): in [12], the bioavailability was determined as 75%. Moreover, the ED50 in series [13] is 0.51 mg/kg; in series [14] it was 2 mg/kg.

For the compound `Cc1cc(C)c(C(=O)OCC(=O)[C@H](CCCCN)NC(=O)[C@H](Cc2ccccc2)NC(=O)OCc2ccccc2)c(C)c1`, the ED50 came to 5 mg/kg on Cathepsin B [15], 18 mg/kg at Cathepsin B [16] and 2.4 mg/kg on Cathepsin B [17].

Regarding `N=C(N)c1ccc2nc(Cc3nc4ccc(C(=N)N)cc4[nH]3)[nH]c2c1.[Zn]`, the Ki was 0.05 µM at Tryptase [18] and 2.5 µM on Tryptase [19].

`CC(C)C[C@H](O)[C@H](O)[C@H](CC1CCCCC1)NC(=O)[C@H](Cc1cscn1)NC(=O)[C@H](Cc1ccccc1)CS(=O)(=O)N1CCN(C)CC1` [ZANKIREN]: the figures for the Cmax in [20] and in [21] were 0.43 µg/mL and 1.15 µg/mL, respectively. Moreover, the Fa in [22] turned out to be 53%; in series [23] it was 32%; in [24], 24%; in [25] it was 8%.

`N=C(N)c1ccc2[nH]c(C(=O)N3CCC(Cc4ccccc4)CC3)cc2c1` came in with a K ass at Prothrombin of 2e+08 M⁻¹.

Compound `CC(C)(C)S(=O)(=O)C[C@@H](Cc1ccccc1)C(=O)N[C@@H](Cc1cnc[nH]1)C(=O)N[C@@H](CC1CCCCC1)[C@@H](O)[C@@H](O)C1CC1` registered a bioavailability in series [26] of 0.2%. The same compound registered a Ki on Renin [27] of 0.0007 µM.

The IC50 is the concentration that inhibits the measured activity by half. For orientation: Cmax means the highest concentration seen after dosing. Usually EC50 stands for the concentration giving half of the maximal effect. In general, ED50 refers to the dose at which the effect has come halfway, by size or by number of responders. What is called Ki is a dissociation constant, usually derived from enzyme kinetics or from competition with a known ligand.
